{
  "source": "paper PMC7006784",
  "about": "“The combination of salvianolic acid A with latamoxef completely protects mice against lethal pneumonia caused by methicillin-resistant Staphylococcus aureus” (Emerging Microbes & Infections, 2020)",
  "key": {"[1]": {"system": "S. aureus USA300", "assay": "Pneumonia model, survival", "type": "in vivo, C57BL/6J mice", "details": "mice, 2 × 10^9 CFU i.n.; s.c. 100 mg/kg Sal A and/or 75 mg/kg latamoxef every 12 h, 96 h; PBS control 10%", "procedure": "The animal experiments were performed using 6- to 8-week-old female C57BL/6J mice obtained from the Experimental Animal Center of Jilin University and conducted according to the guidelines of the Animal Care and Use Committee of Jilin University. The mouse S. aureus pneumonia model was generated as described previously. Briefly, the mice were anaesthetized with ether and inoculated with 30 μl bacterial resuspension via the left nare. The mice were then held upright to allow the bacteria to be inhaled into the lungs. For the survival assessment, groups of 10 mice were challenged with 2 × 10^9 CFU S. aureus. One hour after intranasal inoculation, the mice were subcutaneously injected with 100 mg/kg of Sal A, 75 mg/kg of latamoxef or 100 mg/kg of Sal A plus 75 mg/kg of latamoxef at 12 h intervals, and survival was assessed for 96 h. For the bacterial load, histopathological, and bronchoalveolar lavage fluid (BALF) experiments, mice were inoculated with 1 × 10^9 CFU S. aureus. The mice were then given a subcutaneous injection of 100 mg/kg Sal A, 75 mg/kg latamoxef or a combination of 100 mg/kg Sal A and 75 mg/kg every 12 h. After 24 h, the left lung of each anaesthetized mouse was aseptically excised and homogenized, and the CFU was determined by serial dilutions. […]"}, "[2]": {"system": "S. aureus USA300", "assay": "Pneumonia model, bacterial load and histopathology of the lungs", "type": "in vivo, C57BL/6J mice", "details": "mice, 1 × 10^9 CFU i.n., 24 h", "procedure": "The animal experiments were performed using 6- to 8-week-old female C57BL/6J mice obtained from the Experimental Animal Center of Jilin University and conducted according to the guidelines of the Animal Care and Use Committee of Jilin University. The mouse S. aureus pneumonia model was generated as described previously. Briefly, the mice were anaesthetized with ether and inoculated with 30 μl bacterial resuspension via the left nare. The mice were then held upright to allow the bacteria to be inhaled into the lungs. For the survival assessment, groups of 10 mice were challenged with 2 × 10^9 CFU S. aureus. One hour after intranasal inoculation, the mice were subcutaneously injected with 100 mg/kg of Sal A, 75 mg/kg of latamoxef or 100 mg/kg of Sal A plus 75 mg/kg of latamoxef at 12 h intervals, and survival was assessed for 96 h. For the bacterial load, histopathological, and bronchoalveolar lavage fluid (BALF) experiments, mice were inoculated with 1 × 10^9 CFU S. aureus. The mice were then given a subcutaneous injection of 100 mg/kg Sal A, 75 mg/kg latamoxef or a combination of 100 mg/kg Sal A and 75 mg/kg every 12 h. After 24 h, the left lung of each anaesthetized mouse was aseptically excised and homogenized, and the CFU was determined by serial dilutions. The right lungs from each group of mice were excised for histopathological analysis, and the samples were fixed in 10% formalin and stained with haematoxylin and eosin (H&E)."}},
  "data": [
    {"smiles": "CO[C@@]1(NC(=O)C(C(=O)O)c2ccc(O)cc2)C(=O)N2C(C(=O)O)=C(CSc3nnnn3C)CO[C@@H]21", "note": "(stereo partly drawn) [latamoxef]", "values": [
      {"measurement": "survival rate", "setting": "[1]", "result": 50, "unit": "%"},
      {"measurement": "viable MRSA loads in the lungs in comparison with the control", "setting": "[2]; s.c. 100 mg/kg Sal A and/or 75 mg/kg latamoxef every 12 h", "result": "significantly decreased"},
      {"measurement": "pulmonary inflammation (histopathology of the lungs)", "setting": "[2]; s.c. 100 mg/kg Sal A and/or 75 mg/kg latamoxef, H&E", "result": "alleviated"}
    ]}
  ]
}
